Experiments:
[1] = system: normal, T1DM and T2DM mice; test: Plasma insulin levels before and after treatment; assay type: in vivo, ICR mice; settings: for Plasma insulin Before-treatment: metformin 300 mgkg^−1 group; for Plasma insulin After-treatment: metformin 300 mgkg^−1 i.p.
Protocol: The 4-week-old male ICR mice were purchased from the Animal Center of the College of Medicine, National Taiwan University (Taipei, Taiwan) with delicate humane care. This animal study was conducted by following the University ethical guidelines and the ‘Guide for the Care and Use of Laboratory Animals’ published by the US National Institutes of Health (NIH publication no. 85-23, revised 1996). The animal experiments were approved by the Institutional Animal Care and Use Committee (IACUC) of the National Taiwan University (IACUC No. 20110073). Animals were housed in a room at the constant temperature, 22±1° C., with 12 hours light and dark cycles.
(§1) After three days of acclimatization, the mice had free access to a standard rodent chow (normal mice), a standard rodent chow after single […] streptozotocin (STZ) intraperitoneal injection (T1DM mice), and a fat-rich chow diet and fructose-sweetened water (T2DM mice) for 4 weeks. The induction of Type 1 DM was assessed and confirmed when the mice had plasma glucose levels ≧350 mgdL^−1, accompanied with polyuria, hyperphagia and decreased body weight. The induction Type 2 DM in the mice was assessed by measuring fasting plasma glucose levels and confirmed when plasma glucose level was ≧150 mgdL^−1 after the 4-week induction. The animals were assigned randomly into three groups, with seven animals in each group. In group I, the mice were treated with vehicle, 2% DMSO in normal saline, as the negative control. In group II, the mice were intraperitoneally treated with borapetoside A (0.1-10 mgkg^−1). In group Ill, the positive control, the mice received intraperitoneally metformin (300 mgkg^−1; Sigma Chemical Co., St. Louis, Mo., U.S.A.) or insulin (0.5 IUkg^−1; Insulin Actrapid® HM; Novo Nordisk, Denmark). In the acute study, mice under anesthesia received a single intraperitoneal administration of borapetoside A, negative control, or positive control. In the subacute study, mice received intraperitoneal administrations of borapetoside A, vehicle, or insulin twice a day for seven days.
(§2) Blood samples were collected from the orbital vascular plexus of the mice under anesthesia. Blood samples were then centrifuged at 13000 rpm for 5 min, and the plasma samples were collected and kept on ice prior to the assay. The plasma glucose concentration was measured by Glucose Kit Reagent (Biosystems S. A., Barcelona, Spain) following the manufacturer's instructions, and the insulin levels were estimated using mouse insulin ELISA kit (Mercodia AB, Uppsala, Sweden).

[2] = system: normal mice and mice with type 2 DM; test: Intraperitoneal glucose tolerance test (IPGTT); assay type: in vivo, ICR mice; settings: normal and type 2 DM mice; borapetoside A 0.1, 1 and 10 mgkg^−1; metformin
Protocol: as §1, §2
The mice were maintained under anesthesia throughout the procedure. Glucose (2.0 gkg^−1) was administered intraperitoneally. Blood samples were collected from the orbital vascular plexus at 0, 30, 60, 120 min. The concentrations of the plasma glucose were measured, and the values of AUC were calculated accordantly.

CN(C)C(=N)N=C(N)N [Metformin, metformin, reference compound]
Plasma insulin Before-treatment ([1]; Normal mice): 66.6 ± 1.3 pmol/L | Plasma insulin After-treatment ([1]; Normal mice): 72 ± 3.1 pmol/L | Plasma insulin Before-treatment ([1]; T1DM mice): 22.4 ± 0.4 pmol/L | Plasma insulin After-treatment ([1]; T1DM mice): 22.7 ± 0.3 pmol/L | Plasma insulin Before-treatment ([1]; T2DM mice): 148.1 ± 15.2 pmol/L | Plasma insulin After-treatment ([1]; T2DM mice): 182.0 ± 27.7 pmol/L | increase of plasma glucose level at 30 min in IPGTT, compared to the vehicle group [2]: significantly suppressed

Reference: patent publication US20150265682A1, “THERAPEUTIC METHODS AND COMPOSITIONS FOR TREATING DIABETES” (Orient Europharma Co., Ltd., priority 2014, published 2015)
